The experiment is described as follows: Inhibition of Influenza virus NA. Set-up: species or system unidentified influenza virus.

Usually Ki stands for a measure of affinity in units of concentration, obtained from inhibition or displacement. Lower therefore signals higher affinity.

With `CC(=O)N[C@H]1[C@H]([C@H](O)[C@H](O)CO)OC(C(=O)O)=C[C@@H]1O` [NEU5AC2EN], the affinity, expressed as Ki, was 4 µM. This lies in the single-digit micromolar range.

Source of the values: ChEMBL document CHEMBL4261546, “Synthesis of novel pentacyclic triterpene-Neu5Ac2en derivatives and investigation of their in vitro anti-influenza entry activity” (Medchemcomm, 2017).
